In US20050267182A1, “Urea derivatives as FLT-3 modulators” (Ambit Biosciences Corporation, priority 2003, published 2005):
pIC50, pKd: −log10 of the molar value.

Experiments:
MV4,11 cells = assay: FLT3 assay using MV4,11 cells (cellular proliferation, MTS); assay type: cell-based, human; details: cell assay code CS0001; for pIC50: Homo sapiens, MV4-11
Method: The ability of FLT3 kinase inhibitors to inhibit cellular proliferation was also examined. MV4:11 was a cell line derived from a patient with acute myelogenous leukemia.
FLT3 Assay Using MV4,11 Cells
MV4,11 cells were grown in an incubator @ 37° C. in 5% CO2 in Medium 2 (RPMI, 10% FBS, 4 mM glutamine, Penn/Strep). The cells were counted daily and the cell density was kept between 1e5 and 8e5 cells/ml.
Day One: Enough cells were harvested for experiments to be conducted in 50 ml conical tubes. The harvested cells were spun at 500 g for 5 min at 4° C., the supernatant was then aspirated and the cells were resuspended in the starting volume of 1×PBS. The cells were again spun at 500 g for 5 min at 4° C. and the supernatant again aspirated. The cells were then resuspended in medium 3 (DMEM w/ glut, 10% FBS, Penn/Strep) to a density of 4e5 cells/ml and incubated (37° C. in 5% CO2 O/N.
Day Two: The cells were counted and enough medium 3 was added to decrease density to 2e5 cells/ml. 50 ul (10,000 cells) was aliquoted into each well of a 96 well optical plate using multichannel pipetman. The compound plate was then set up by aliquoting 3 μl of negative control (DMSO) into column 1 of a 96 well 300 ul polypropylene plate, aliquoting 3 μt of positive control (10 mM AB20121) into column 12 of plate, and aliquoting 3 μl of appropriate compounds from serial dilutions into columns 2-11. To each well, 150 μl of Medium 3 was added and 50 μl of compound/medium mixture from compound plate into rows of optical plate in duplicate. The cells were then incubated @ 37° C. in 5% CO2 for 3 days.
Day Five: MTS was thawed in a H2O bath. 20 μl of MTS was added to each well of optical plate and the cells were incubated (37° C. in 5% CO2 for 2 hours. The plate was then placed on a plate shaker for 30 seconds on high speed.

CS0002 = assay: Cell Assay: CS0002; assay type: cell-based; details: cell assay code CS0002
FLT3 = target: T1, FLT3 (Homo sapiens, UniProt P36888); assay: Binding constant (Kd) measurement, phage-displayed kinase competition binding assay; details: for Binding Assay: FLT3(JMminus): FLT3(JMminus) construct
T1 construct: FLT3(DKIN); made in house
T1 sequence (P36888 610-943 limits assumed): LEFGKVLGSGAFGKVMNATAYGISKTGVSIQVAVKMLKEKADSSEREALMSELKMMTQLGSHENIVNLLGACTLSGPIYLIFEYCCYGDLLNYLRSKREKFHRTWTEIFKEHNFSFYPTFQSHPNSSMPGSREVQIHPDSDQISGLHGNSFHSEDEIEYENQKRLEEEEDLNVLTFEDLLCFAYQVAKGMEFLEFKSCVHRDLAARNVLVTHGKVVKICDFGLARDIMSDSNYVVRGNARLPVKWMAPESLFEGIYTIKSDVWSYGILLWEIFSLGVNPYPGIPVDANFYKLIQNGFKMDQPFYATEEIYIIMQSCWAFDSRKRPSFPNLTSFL
Excerpt: Binding Constant (Kd) Measurements for Small-Molecule-Kinase Interactions
The term “ND” represents non-determined values.

| SMILES | Cell Assay: CS0001:IC50 (MV4,11 cells) | pIC50 (CS0002) | Binding Assay: FLT3(JMminus) (FLT3) | Cell Assay: CS0002:IC50 (CS0002) | Binding Assay: FLT3(DKIN) (FLT3; FLT3(DKIN) construct) | pIC50 (MV4,11 cells) | pKd (FLT3; FLT3(DKIN) construct) |
| --- | --- | --- | --- | --- | --- | --- | --- |
| CC(C)(C)c1cc(NC(=O)Nc2ccc(Nc3cc(N)nc(N)n3)cc2)no1 [Compound O7] | + + + + | < 5.00 | + + + + | – | – | – | – |
| Cc1nc(-c2ccccc2)sc1C(=O)Nc1ccc(NC(=O)Nc2cc(C(C)(C)C)on2)cc1 [Compound N181] | + + + + | – | + + + + | + + | – | – | – |
| Cn1nc(C(F)(F)F)c(C(=O)Nc2ccc(NC(=O)Nc3cc(C(C)(C)C)on3)cc2)c1Cl [Compound N68] | + + + | – | – | + + + | + + + + | – | – |
| COc1cc(OC)nc(Nc2cccc(C(=O)Nc3ccc(NC(=O)Nc4cc(C(C)(C)C)on4)cc3)c2)n1 [Compound N49] | + + + + | – | – | + + + | + + + + | – | – |
| CC(C)(C)c1cc(NC(=O)Nc2ccc(C(=O)/C=C/c3ccncc3)cc2)no1 | + + + | < 5.00 | + + + + | – | – | – | – |
| CC(C)(C)c1cc(NC(=O)Nc2ccc(NC(=O)c3cc([N+](=O)[O-])ccn3)cc2)no1 [Compound N7] | – | < 5.00 | – | – | + + + + | – | – |
| CCc1ccc(C(=O)Nc2ccc(NC(=O)Nc3cc(C(C)(C)C)on3)cc2)cc1 [Compound N32] | + + + | < 5.00 | – | – | + + + + | – | – |
| CC(C)c1sc(Cl)nc1C(=O)Nc1ccc(NC(=O)Nc2cc(C(C)(C)C)on2)cc1 [Compound N75] | – | – | + + + + | + + | – | < 5.00 | – |
| COc1cc(OC)nc(N(C)c2cccc(C(=O)Nc3ccc(NC(=O)Nc4ccon4)cc3)c2)n1 [Compound N53] | + + + | – | – | + + | + + + + | – | – |
| Cc1ccc(-c2nc(C(=O)Nc3ccc(NC(=O)Nc4cc(C(C)(C)C)on4)cc3)cs2)cc1 [Compound N178] | + + + | – | + + + + | + + | – | – | – |
| CC(C)c1cc(NC(=O)Nc2ccc(NC(=O)C3CCN(c4ncc(C(F)(F)F)cc4Cl)CC3)cc2)no1 [Compound N59] | + + + + | < 5.00 | – | – | + + + | – | – |
| Cc1nc(-c2ccc(Cl)cc2)sc1C(=O)Nc1ccc(NC(=O)Nc2cc(C(C)(C)C)on2)cc1 [Compound N184] | + + + + | – | + + + + | + + | – | – | – |
| COC(=O)c1cccc(Sc2ncc(NC(=O)Nc3cc(C(C)(C)C)on3)s2)c1 [Compound O8] | + + + | – | + + + + | + + | – | – | – |
| CC(C)(C)c1cc(NC(=O)Nc2ccc([N+](=O)[O-])cc2)no1 [Compound A21] | + + + | – | + + + | + + | – | – | – |
| CC(C)(C)c1cc(NC(=O)Nc2ccc(NC(=O)c3cccnc3C(=O)O)cc2)no1 [Compound N165] | + + + + | < 5.00 | + + + | – | – | – | – |
| COc1cc(OC)nc(Sc2ccccc2C(=O)Nc2ccc(NC(=O)Nc3cc(C(C)(C)C)on3)cc2)n1 [Compound N47] | + + + | – | – | + + + | + + + + | – | – |
| CC(C)(C)c1cnc(CSc2cnc(NC(=O)Nc3ccon3)s2)o1 | + + + | – | + + + | + + | – | – | – |
| CC(C)(C)c1cc(NC(=O)Nc2ccc3c(c2)OCO3)no1 [Compound A56] | + + + | < 5.00 | + + + | – | – | – | – |
| CCOC(=O)c1cccc(C(=O)Nc2ccc(NC(=O)Nc3cc(C(C)(C)C)on3)cc2)n1 [Compound N164] | + + + + | – | + + + + | + + | – | – | – |
| Cc1ccc(-n2nc(C(C)(C)C)cc2NC(=O)Nc2ccc(OCCN3CCOC(CO)C3)c3ccccc23)cc1 (stereo not shown) [Compound G38] | + + + | – | – | – | + + + + | – | – |
| CC(C)(C)c1cc(NC(=O)Nc2ccc(NC(=O)c3cc(Cl)nnc3Cl)cc2)no1 [Compound N174] | + + and + + + | – | + + + | – | + + + + | – | – |

| SMILES | Cell Assay: CS0001:IC50 (MV4,11 cells) | pIC50 (CS0002) | Binding Assay: FLT3(JMminus) (FLT3) | Cell Assay: CS0002:IC50 (CS0002) | Binding Assay: FLT3(DKIN) (FLT3; FLT3(DKIN) construct) | pIC50 (MV4,11 cells) | pKd (FLT3; FLT3(DKIN) construct) |
| --- | --- | --- | --- | --- | --- | --- | --- |
| CC(C)(C)c1cc(NC(=O)Nc2ccc(NC(=O)c3cc(Cl)nc(Cl)c3)cc2)no1 [Compound N132] | + + + | – | – | – | + + + | – | – |
| CC(=O)c1c[nH]c(C(=O)Nc2ccc(NC(=O)Nc3cc(C(C)(C)C)on3)cc2)c1 [Compound N43] | + + + | – | – | – | + + + + | – | – |
| CC(C)(C)c1cc(NC(=O)Nc2ccc(NC(=O)c3cc(O)c4cccc(O)c4n3)cc2)no1 [Compound N176] | – | – | + + + | – | – | < 5.00 | – |
| CC(C)(C)c1cc(NC(=O)Nc2ccc(NC(=O)Cc3sc(-c4ccc(Cl)cc4)nc3-c3ccccc3)cc2)no1 [Compound N66] | + + + | – | – | – | + + + + | – | – |
| COC(=O)c1ccc(C(=O)Nc2ccc(NC(=O)Nc3cc(C(C)(C)C)on3)cc2)nc1 [Compound N12] | + + + | – | – | – | + + + + | – | – |
| CC(C)(C)c1cc(NC(=O)Nc2ccc(NC(=O)c3c(F)cccc3F)cc2)no1 [Compound N37] | + + | – | – | – | + + + | – | – |
| Cc1ncccc1C(=O)Nc1ccc(NC(=O)Nc2cc(C(C)(C)C)on2)cc1 [Compound N145] | + + + | – | – | – | + + + + | – | – |
| COc1cc(OC)nc(C2CCCCC2C(=O)Nc2ccc(NC(=O)Nc3cc(C(C)(C)C)on3)cc2)n1 (stereo not shown) [Compound N129] | + + + | – | + + + | – | – | – | – |
| CC(=O)c1ccc(NC(=O)Nc2cc(C(C)(C)C)on2)cc1 [Compound A20] | + + + | – | – | – | + + + | – | – |
| C=CCOc1ccc(NC(=O)Nc2cc(C(C)(C)C)no2)cc1 [Compound G32] | + + + + | – | – | – | + + + + | – | – |
| Cc1nc(C(=O)Nc2ccc(NC(=O)Nc3cc(C(C)(C)C)on3)cc2)nn1-c1cc(Cl)cc(Cl)c1 [Compound N15] | + + | – | – | – | + + + | – | – |
| COc1nc(C)cc(C)c1C(=O)Nc1ccc(NC(=O)Nc2cc(C(C)(C)C)on2)cc1 [Compound N22] | + + + | – | – | – | + + + + | – | – |
| CC(C)CCOC(=O)c1nnsc1NC(=O)Nc1ccc(Br)cc1 [Compound Z36] | + + | – | – | – | – | – | < 5.00 |
| CCOc1ccc(NC(=O)Nc2cc(C(C)(C)C)on2)cc1 [Compound G20] | + + + + | – | – | – | + + + + | – | – |
| CC(C)(C)c1cc(NC(=O)Nc2ccc(OCCN3CCOCC3)cc2)no1 [Compound G40] | + + | – | – | – | + + + | – | – |
| Cc1nc(C(=O)Nc2ccc(NC(=O)Nc3cc(C(C)(C)C)on3)cc2)c(C(F)(F)F)o1 [Compound N55] | + + + | – | – | – | + + + + | – | – |
| C=C/C(=C\C=C\Cl)NC(=O)Nc1ccc(C(=O)OCCOC)cc1 [Compound Z54] | + + | – | – | – | + + | – | – |
| CC(C)(C)c1cc(NC(=O)Nc2ccc(NC(=O)c3nccc4ccccc34)cc2)no1 [Compound N117] | + + + + | – | – | – | + + + + | – | – |
| CC(C)(C)c1cc(C(=O)Nc2ccc(NC(=O)Nc3cc(C(C)(C)C)on3)cc2)n(-c2ccccc2)n1 [Compound N78] | + + + | – | + + + | – | – | – | – |
| CC(C)(C)c1cc(NC(=O)Nc2ccc(NC(=O)c3cccc(SC(F)F)c3)cc2)no1 [Compound N25] | + + + | – | – | – | + + + + | – | – |
| CC(C)(C)c1noc(-c2ccc(NC(=S)Nc3cc(C(C)(C)C)on3)cc2)n1 [Compound P6] | + + + | – | – | – | + + | – | – |
